Measured values from patent publication US11154550B2, “Treatment for neurodegeneration” (The University of Birmingham, priority 2012, dated 2021).
“Also recorded” adds a separate entry of the source. Counter-ions that a name gives are not always drawn. Like-named read-outs stand apart in the source and are kept apart here.

Columns and labels:
[1] = tested on: p21; experiment: p21 fluorescent immunocytochemistry followed by high content cytometry in drug-treated SHSY-5Y cells; type: cell-based, Human; conditions: neuroblastoma cells
Description: (§1) Human SHSY-5Y neuroblastoma cells were grown in DMEM:F12 supplemented with 10% FCS, penicillin (100 units/mil), streptomycin (100 μg/ml) and L-glutamine. The cells were plated for 24 hours into 96 well plates (5000 cells per well) before treatment with drugs. Each drug (doses applied in separate figures) and the control (DMSO) were applied to 8 technical replicate wells. After 24 hours treatment the cells were harvested by fixation in Glyofix and were post-fixed with ice cold 85% ethanol.
(§2) For P21^cip staining, the alcohol was aspirated and replaced with 100 μl/well blocking solution (5% BSA in PBST [1:1000 Triton X]) and incubated for 30 minutes at room temperature. After aspirating the blocking solution, 50 μl/well primary antibody solution (monoclonal P21 Abcam, 1:1000 in PBST) was added and incubated over night at 4° C. and PBST was applied as negative control. The next day, the cells were washed by twice aspirating 200 μl/well PBST. Afterwards, 50 μl/well secondary antibody solution (Anti-mouse IgG-FITC, Abcam, 1:200 in PBST) was added, protecting the solutions and plates from light, and incubated overnight at +4° C. The next day, the cells were washed twice with 200 μl/well PBST and stained with propidium iodide solution. […]. The composition of the propidium iodide staining solution was 0.1% Triton-X-100, […] propidium iodide, […] RNase A in PBS. The cells were incubated with the staining solution for 25 minutes at 37° C., and then DNA content based on total fluorescence was measured with a High Content Cytometer (Acumen). This allows rapid analysis of whole 96 well plates with resolution equivalent to a 20× microscope objective. The measurement of p21 content of cells and nuclei was based on the direct measurement of fluorescent intensity.

[2] = tested on: Human SHSY-5Y neuroblastoma cells; experiment: High content cytometry apoptosis assay in drug-treated SHSY-5Y cells; type: cell-based; conditions: 24 hours; for cell death: up to 200 microM
Description: as §1, §2

[3] = tested on: C7, KD2 and KD3 cell lines (SK-N-AS derived); experiment: Cell cycle analysis (propidium iodide DNA content cytometry) in drug-treated C7, KD2 and KD3 cells; type: cell-based, human; conditions: 24 hours, up to 100 μM
Description: The C7 cell suspension were poured into sterile reagent reservoir labelled C7 and using multichannel pipette, 50 μl of cell suspension were dispense into each well. Then 50 μl of 2× culture media was added into each well. Plating was repeated for KD2 and KD3 cell lines. One plate of ‘zero day control’ was also prepared per experiment. On ‘zero day control’ plate, C7 cell line were plated into columns 1, 2, 7 and 8; KD2 cell line were plated into columns 3, 4, 9 and 10; KD3 cell line were plated into columns 5, 6, 11 and 12. Cells were plated at the same density for both ‘zero day control’ and experiment plates. The ‘zero day control’ plate remains untreated and is to be harvested just before the drugs were added into the treatment plates.
For each drug, 2× working solutions are prepared in culture medium and added to the cultures. The highest drug concentration is 100 μM and final solvent (H2O/DMSO) concentration in the cultures is 1%.
Using an 8-multichannel pipetor, 100 μl of 2× final drug concentrations were gently dispensed into the culture plates of C7, KD2 and KD3 cells. The time of the treatment was noted and cells were transferred back into 37° C./5% CO2 humidified incubator and were incubated for 24 hours.
The propidium iodide staining was used to determine the cell cycle phase of the cells based on DNA content.
To determine cut-offs for cells in different phases of the cell cycle, gate setting was performed based on the G1 and G2 peaks on the DNA content histogram. To determine the G1 and G2 peaks, the 3° total intensity in 20% histograms was analysed for each plate. Gates calculated were manually entered into the Acumen software.
(§3) The data exported and quantified included separately all cells and single cells. Single cells were further subcategorised into euploid, apoptotic and polyploid cells. Euploid cells were additionally classified into cells in G1 S and G2M phases of the cell cycle.

[4] = tested on: p21cip1; experiment: p21cip1 immunostaining and cytometry in drug-treated C7, KD2 and KD3 cells; type: cell-based, human
Description: BSA was removed from the plates after 30 minutes incubation. To C7, KD2 and KD3 plates, 50 μl of primary antibody (p21; Abcam ab7903; 1/1000 in PBST) solution was added to each well. On ‘zero day control’ plate, 50 μl of the primary antibody was added to columns 1-6 while columns 7-12 received only 50 μl PBST on each well. These (columns 7-12) serve as a negative controls and will received secondary antibody only. Plates were then wrapped in cling film and were incubated at +4° C. overnight. The following day, p21 primary antibody solution was removed from the plates and cells were washed by adding 200 μl of PBST. This was repeated once (total of 2 washes) and all plates were then subjected to secondary antibody treatment. Secondary antibody solution was made using am IgG-FITC (Abcam ab6785; 1/200 in PBST) and 50 μl was added to each well. Plates were then wrapped in aluminium foil to protect from light and were incubated at +4° C. for 2 hours. The immunostaining was used to measure the content of p21^cip1 in the cells. Measurement was carried out using a laser triggering the 1° channel (bandpass filter 500-530 nm). The total fluorescence intensity from the 1° channel was used to compare total protein levels in the different cell populations defined above. Mean fluorescence intensity per cell (for the whole of the population) and mean fluorescence intensity per cell (for positive cells only) were analysed separately. Additionally the proportion of positive cells in each population was calculated.

[5] = tested on: C7, KD2 and KD3 cell lines (SK-N-AS derived); experiment: Apoptotic fraction in p21 positive versus p21 negative cells of drug-treated C7, KD2 and KD3 cultures; type: cell-based, human
Description: as §3
The total fluorescence intensity from the 1° channel was used to compare total protein levels in the different cell populations defined above. Mean fluorescence intensity per cell (for the whole of the population) and mean fluorescence intensity per cell (for positive cells only) were analysed separately. Additionally the proportion of positive cells in each population was calculated.

[6] = all three cell lines (C7, KD2, KD3)
[7] = G1 and G2 subpopulations, all three cell lines
[8] = all cell lines (C7, KD2, KD3), 24 hours

`CC(C(=O)O)c1ccc(-c2ccccc2)c(F)c1` (racemic) [Flurbiprofen] was tested, and the p21 expression ([1]; 0.01 and 0.1 microM, 24 hours) was “significantly increase”, the “p21 expression in the nuclear compartment” value ([1]; 0.01 and 0.1 microM, 24 hours) was “significantly increase” and the “expression and/or the functional activity of p21” value [1] was “increased”. For the same compound, the apoptotic cell death ([2]; 0.01 and 0.1 microM) was “reduce apoptosis; also recorded: significantly reduce; also recorded: reduce apoptotic cell death”.

`O=C([O-])CCCc1ccccc1.[Na+]` [4-PBA, Sodium 4-phenylbutyrate] was tested, and the cell cycle effects [3, 6] was “no effects”, the p21 expression ([4]; G2 cell population, all three cell lines) was “induces; also recorded: relatively small” and the p21 expression ([4]; G2 cell population, all three cell lines, listed as Sodium 4-phenylbutyrate) was “induces”. The “apoptosis in p21 positive cells relative to p21 negative cells” value [5] was “significantly reduced apoptosis”.

In the case of `Cc1cc(C2CCCCC2)n(O)c(=O)c1` [CPX, Ciclopirox Olamine], the cell cycle effects [3, 6] is reported as “slight G1 cell cycle arrest”, the p21 expression [4, 7] is reported as “induces significant p21 expression” and the p21 expression [4, 8] is reported as “up-regulates”. The “apoptosis in p21 positive cells relative to p21 negative cells” value [5] was “significant reduction of apoptotic cells; also recorded: reduced cell death”.

`CCN(CC)CCCC(C)Nc1ccnc2cc(Cl)ccc12` (stereo not shown) [Chloroquine diphosphate] was tested, and the cell cycle effects [3, 6] was “no significant effect”, the cell cycle effects ([3]; all three cell lines (C7, KD2, KD3), listed as chloroquine diphosphate) was “no significant cell cycle regulatory effects” and the “proportion of protein positive cells” value ([4]; C7 cells) was “increased proportion”. The p21 expression ([4]; C7 cells, G1 and G2M) was “significantly increased”, the “proportion of protein positive cells” value ([4]; KD2 and KD3 cells) was “increased” and the p21 expression ([4]; KD2 cells, G2M phase) was “up-regulated”. For the same compound, the p21 expression ([4]; KD3 cell line, G1) was “upregulation”, the “population of positive cells” value ([4]; all cell lines) was “increases” and the p21 expression [4, 8] was “up-regulates”. For the same compound, the “apoptosis in p21 positive cells relative to p21 negative cells” value [5] was “significantly less likely to be apoptotic; also recorded: significantly reduced cell death”.

In the case of `Nc1ccc(S(=O)(=O)c2ccc(N)cc2)cc1` [Dapsone, 4-Aminophenyl sulfone], the cell cycle effects [3, 6] is reported as “No cell cycle effects”, the p21 expression [4, 8] is reported as “significantly up-regulates” and the “apoptosis in p21 positive cells relative to p21 negative cells” value [5] is reported as “significant reduction of apoptotic cells”.

With `C[C@@H](CN1CC(=O)NC(=O)C1)N1CC(=O)NC(=O)C1` [Dexrazoxane] the “expression and/or the functional activity of p21” value [1] was “increased”, the p21 expression ([1]; up to 200 microM, 24 hours) was “significantly increase” and the cell death [2] was “reduce neuronal cells death; also recorded: significantly reduced cell death”. For the same compound, the cell death ([2]; listed as Dexrasoxane) was “reduce apoptosis; also recorded: significantly reduced cell death”.

With `CC(=O)O[C@H]1C[C@@]2(C)[C@@H](C[C@@H](O)[C@H]3[C@@]4(C)CC[C@@H](O)[C@@H](C)[C@@H]4CC[C@@]32C)/C1=C(\CCC=C(C)C)C(=O)O` [Fusidic acid] the cell cycle effects [3, 6] was “weak G2 inhibitor”, the p21 expression [4, 8] was “significant increase; also recorded: induces significant p21 expression” and the “apoptosis in p21 positive cells relative to p21 negative cells” value [5] was “reduction of apoptosis”.

In the case of `CN(C)C(=O)C(CCN1CCC(O)(c2ccc(Cl)cc2)CC1)(c1ccccc1)c1ccccc1` [Loperamide, Loperamide hydrochloride], the cell cycle effects ([3]; all three cell lines (C7, KD2, KD3), hydrochloride) is reported as “weak G1 inhibitor; also recorded: weak G1 cell cycle arrest”, the p21 expression [4, 7] is reported as “induce” and the p21 expression [4, 8] is reported as “up-regulates”. The “apoptosis in p21 positive cells relative to p21 negative cells” value ([5]; hydrochloride) was “significant reduction of apoptosis; also recorded: reduces apoptosis significantly” and the “apoptosis in p21 positive cells relative to p21 negative cells” value ([5]; listed as Loperamide hydrochloride, hydrochloride) was “significant reduction of apoptosis”.

`CCCC(CCC)C(=O)[O-].[Na+]` [SV, Sodium Valproate] was tested, and the cell cycle effects ([3]; C7 cell line) was “slight G2 arrest; also recorded: not seen”, the cell cycle effects ([3]; KD2 cell line) was “G1 inhibition; also recorded: slight G1 inhibitor effect” and the cell cycle effects ([3]; KD3 cell line) was “G1 inhibition; also recorded: slight G1 inhibitor effect”. The p21 protein expression ([4]; G2 sub-population of cells, 1 μM, 24 hours) was “significant upregulation”, the p21 expression [4, 8] was “modest” and the “apoptosis in p21 positive cells relative to p21 negative cells” value [5] was “significant reduction of apoptotic fraction”.
